Measurements taken from patent US20230391786A1, “cGAS INHIBITORS” (Eli Lilly and Company, priority 2022, published 2023).

Assays:
[1] = tested on: cGAS activity in THP1 cells (IFNb as marker); test: Cellular assay to measure cGAS activity (IFNb production in PMA-differentiated THP1 cells stimulated by RDG-Adenovirus-GFP); type: cell-based, human; details: Homo sapiens, THP-1, THP1 cells, PMA differentiated, RDG-Adenovirus-GFP 1000 MOI, IFNb AlphaLISA, overnight incubation; read-out: IC50 (μM), Cellular assay for Compounds 95-348
How it was run: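 PMA-differentiated THP1 cells were infected with RDG-Adenovirus-GFP at 1000 MOI for 4 h, then exposed overnight to test compounds. IFNb in the supernatant was quantified by AlphaLISA as a cGAS activity marker, and IC50 was fitted with a 4-parameter logistic equation.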

[2] = biological target: recombinant human cGAS (Homo sapiens (Human), UniProt Q8N884); test: In vitro inhibition assay of cGAS activity (cGAMP production, RapidFire mass spectrometry); type: biochemical; details: 10 nM recombinant human cGAS, 60 nM 75-bp dsDNA, ATP, GTP, room temperature 3 hours, read-out: IC50 (μM), In vitro inhibition assay for Compounds 95-348
How it was run: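 Full-length His6-tagged human cGAS (10 nM, E. coli-expressed) was incubated 3 h at room temperature with 60 nM 75-bp dsDNA, ATP, 50 μM GTP and compound at pH 7.5 with 5 mM MgCl2. cGAMP formation was measured by RapidFire mass spectrometry, and IC50 was taken from a 4-parameter logistic fit.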

recombinant human cGAS, sequence (Q8N884 whole entry): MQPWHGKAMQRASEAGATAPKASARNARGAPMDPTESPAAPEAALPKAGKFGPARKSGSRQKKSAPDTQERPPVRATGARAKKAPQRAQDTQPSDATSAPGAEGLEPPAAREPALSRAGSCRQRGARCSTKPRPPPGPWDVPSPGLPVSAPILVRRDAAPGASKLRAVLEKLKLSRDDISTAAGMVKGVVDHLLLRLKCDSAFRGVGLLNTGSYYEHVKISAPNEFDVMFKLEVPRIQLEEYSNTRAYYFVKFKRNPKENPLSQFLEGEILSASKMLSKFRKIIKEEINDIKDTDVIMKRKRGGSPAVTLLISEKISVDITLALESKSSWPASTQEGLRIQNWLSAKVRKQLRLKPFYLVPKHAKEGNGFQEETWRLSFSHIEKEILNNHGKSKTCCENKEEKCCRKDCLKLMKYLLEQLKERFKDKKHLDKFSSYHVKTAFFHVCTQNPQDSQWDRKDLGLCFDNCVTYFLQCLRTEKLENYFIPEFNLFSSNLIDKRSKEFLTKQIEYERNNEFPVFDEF

Row | Structure (SMILES) | IC50 [1] | IC50 [2]
1 | N#CCOc1cc(Cl)c(Cl)c2c1c(-c1cn[nH]c1)c1n2CCN(C(=O)CN2CCOCC2)C1 [Example 289, 2-((6,7-Dichloro-2-(2-morpholinoacetyl)-10-(1H-pyrazol-4-yl)-1,2,3,4-tetrahydropyrazino[1,2-a]indol-9-yl)oxy)acetonitrile] | 3.73 µM | 0.0303 µM
2 | N#CCOc1cc(Cl)c(Cl)c2c1c(-c1cn[nH]c1)c1n2CCN(C(=O)CN2CCOCC2=O)C1 [Example 290, 2-((6,7-Dichloro-2-(2-(3-oxomorpholino)acetyl)-10-(1H-pyrazol-4-yl)-1,2,3,4-tetrahydropyrazino[1,2-a]indol-9-yl)oxy)acetonitrile] | 6.97 µM | 0.0321 µM
3 | CN1CC(C(=O)N2CCn3c(c(-c4cn[nH]c4)c4c(OCC#N)cc(Cl)c(Cl)c43)C2)CC1=O (stereo not shown) [Example 291, 2-((6,7-Dichloro-2-(1-methyl-5-oxopyrrolidine-3-carbonyl)-10-(1H-pyrazol-4-yl)-1,2,3,4-tetrahydropyrazino[1,2-a]indol-9-yl)oxy)acetonitrile] | 4.91 µM | 0.0325 µM
4 | N#CCOc1cc(Cl)c(Cl)c2c1c(-c1cn[nH]c1)c1n2CCN(C(=O)CCn2cncn2)C1 [Example 292, 2-((2-(3-(1H-1,2,4-Triazol-1-yl)propanoyl)-6,7-dichloro-10-(1H-pyrazol-4-yl)-1,2,3,4-tetrahydropyrazino[1,2-a]indol-9-yl)oxy)acetonitrile] | 4.08 µM | 0.0365 µM
5 | Cc1nc(C)n(CC(=O)N2CCn3c(c(-c4cn[nH]c4)c4c(OCC#N)cc(Cl)c(Cl)c43)C2)n1 [Example 293, 2-((6,7-Dichloro-2-(2-(3,5-dimethyl-1H-1,2,4-triazol-1-yl)acetyl)-10-(1H-pyrazol-4-yl)-1,2,3,4-tetrahydropyrazino[1,2-a]indol-9-yl)oxy)acetonitrile] | > 10 µM | 0.0447 µM
6 | CN1CCOC(C(=O)N2CCn3c(c(-c4cn[nH]c4)c4c(OCC#N)cc(Cl)c(Cl)c43)C2)C1 (stereo not shown) [Example 294, 2-((6,7-Dichloro-2-(4-methylmorpholine-2-carbonyl)-10-(1H-pyrazol-4-yl)-1,2,3,4-tetrahydropyrazino[1,2-a]indol-9-yl)oxy)acetonitrile] | 0.366 µM | 0.0479 µM
7 | N#CCOc1cc(Cl)c(Cl)c2c1c(-c1cn[nH]c1)c1n2CCN(C(=O)c2nccnc2C(=O)N2CCCCC2)C1 [Example 295, 2-((6,7-Dichloro-2-(3-(piperidine-1-carbonyl)pyrazine-2-carbonyl)-10-(1H-pyrazol-4-yl)-1,2,3,4-tetrahydropyrazino[1,2-a]indol-9-yl)oxy)acetonitrile] | 2.14 µM | 0.0561 µM
8 | N#CCOc1cc(Cl)c(Cl)c2c1c(-c1cn[nH]c1)c1n2CCN(C(=O)c2nccnc2C(=O)N2CCOCC2)C1 [Example 296, 2-((6,7-Dichloro-2-(3-(morpholine-4-carbonyl)pyrazine-2-carbonyl)-10-(1H-pyrazol-4-yl)-1,2,3,4-tetrahydropyrazino[1,2-a]indol-9-yl)oxy)acetonitrile] | 4.78 µM | 0.061 µM
9 | NC(=O)CCC(=O)N1CCn2c(c(-c3cn[nH]c3)c3ccc(Cl)c(Cl)c32)C1 [Example 297, 4-(6,7-Dichloro-10-(1H-pyrazol-4-yl)-3,4-dihydropyrazino[1,2-a]indol-2(1H)-yl)-4-oxobutanamide] | > 10 µM | 0.0251 µM
10 | O=C(CC1COCCOC1)N1CCn2c(c(-c3cn[nH]c3)c3ccc(Cl)c(Cl)c32)C1 [Example 298, 1-(6,7-Dichloro-10-(1H-pyrazol-4-yl)-3,4-dihydropyrazino[1,2-a]indol-2(1H)-yl)-2-(1,4-dioxepan-6-yl)ethan-1-one] | > 10 µM | 0.0234 µM
11 | O=C(CC1COCCO1)N1CCn2c(c(-c3cn[nH]c3)c3ccc(Cl)c(Cl)c32)C1 (stereo not shown) [Example 299, 1-(6,7-Dichloro-10-(1H-pyrazol-4-yl)-3,4-dihydropyrazino[1,2-a]indol-2(1H)-yl)-2-(1,4-dioxan-2-yl)ethan-1-one] | > 10 µM | 0.0257 µM
12 | CN1CCC(CC(=O)N2CCn3c(c(-c4cn[nH]c4)c4ccc(Cl)c(Cl)c43)C2)C1=O (stereo not shown) [Example 300, 3-(2-(6,7-Dichloro-10-(1H-pyrazol-4-yl)-3,4-dihydropyrazino[1,2-a]indol-2(1H)-yl)-2-oxoethyl)-1-methylpyrrolidin-2-one] | > 10 µM | 0.0288 µM
13 | CN(C)C(=O)COCC(=O)N1CCn2c(c(-c3cn[nH]c3)c3ccc(Cl)c(Cl)c32)C1 [Example 301, 2-(2-(6,7-Dichloro-10-(1H-pyrazol-4-yl)-3,4-dihydropyrazino[1,2-a]indol-2(1H)-yl)-2-oxoethoxy)-N,N-dimethylacetamide] | > 10 µM | 0.0291 µM
14 | CN(C)C(=O)CC(=O)N1CCn2c(c(-c3cn[nH]c3)c3ccc(Cl)c(Cl)c32)C1 [Example 302, 3-(6,7-Dichloro-10-(1H-pyrazol-4-yl)-3,4-dihydropyrazino[1,2-a]indol-2(1H)-yl)-N,N-dimethyl-3-oxopropanamide] | 6.95 µM | 0.0323 µM
15 | CN1CCC(C(=O)N2CCn3c(c(-c4cn[nH]c4)c4ccc(Cl)c(Cl)c43)C2)CC1=O (stereo not shown) [Example 303, 4-(6,7-Dichloro-10-(1H-pyrazol-4-yl)-1,2,3,4-tetrahydropyrazino[1,2-a]indole-2-carbonyl)-1-methylpiperidin-2-one] | > 10 µM | 0.0349 µM
16 | O=C1COCCN1CCC(=O)N1CCn2c(c(-c3cn[nH]c3)c3ccc(Cl)c(Cl)c32)C1 [Example 304, 4-(3-(6,7-Dichloro-10-(1H-pyrazol-4-yl)-3,4-dihydropyrazino[1,2-a]indol-2(1H)-yl)-3-oxopropyl)morpholin-3-one] | 8.47 µM | 0.0351 µM
17 | CN1CC(C(=O)N2CCn3c(c(-c4cn[nH]c4)c4ccc(Cl)c(Cl)c43)C2)CCC1=O (stereo not shown) [Example 305, 5-(6,7-Dichloro-10-(1H-pyrazol-4-yl)-1,2,3,4-tetrahydropyrazino[1,2-a]indole-2-carbonyl)-1-methylpiperidin-2-one] | > 10 µM | 0.0378 µM
18 | COCCOCC(=O)N1CCn2c(c(-c3cn[nH]c3)c3ccc(Cl)c(Cl)c32)C1 [Example 306, 1-(6,7-Dichloro-10-(1H-pyrazol-4-yl)-3,4-dihydropyrazino[1,2-a]indol-2(1H)-yl)-2-(2-methoxyethoxy)ethan-1-one] | > 10 µM | 0.0379 µM
19 | O=C(CN1C(=O)CSC1=O)N1CCn2c(c(-c3cn[nH]c3)c3ccc(Cl)c(Cl)c32)C1 [Example 307, 3-(2-(6,7-Dichloro-10-(1H-pyrazol-4-yl)-3,4-dihydropyrazino[1,2-a]indol-2(1H)-yl)-2-oxoethyl)thiazolidine-2,4-dione] | > 10 µM | 0.0398 µM
20 | CC(=O)N(C)CCC(=O)N1CCn2c(c(-c3cn[nH]c3)c3ccc(Cl)c(Cl)c32)C1 [Example 308, N-(3-(6,7-Dichloro-10-(1H-pyrazol-4-yl)-3,4-dihydropyrazino[1,2-a]indol-2(1H)-yl)-3-oxopropyl)-N-methylacetamide] | 7.9 µM | 0.0423 µM
21 | CN1CCOCC1C(=O)N1CCn2c(c(-c3cn[nH]c3)c3ccc(Cl)c(Cl)c32)C1 (stereo not shown) [Example 309, (6,7-Dichloro-10-(1H-pyrazol-4-yl)-3,4-dihydropyrazino[1,2-a]indol-2(1H)-yl)(4-methylmorpholin-3-yl)methanone] | > 10 µM | 0.0427 µM
22 | O=C(C1COCCOC1)N1CCn2c(c(-c3cn[nH]c3)c3ccc(Cl)c(Cl)c32)C1 [Example 310, (6,7-Dichloro-10-(1H-pyrazol-4-yl)-3,4-dihydropyrazino[1,2-a]indol-2(1H)-yl)(1,4-dioxepan-6-yl)methanone] | > 10 µM | 0.0428 µM
23 | O=C(CO)Nc1cc(Cl)c(Cl)c2[nH]nc(-c3cn[nH]c3)c12 [Example 336, N-(6,7-Dichloro-3-(1H-pyrazol-4-yl)-1H-indazol-4-yl)-2-hydroxyacetamide] | 0.492 µM | 0.0385 µM
24 | O=C(Nc1cc(Cl)c(Cl)c2[nH]nc(-c3cn[nH]c3)c12)C(F)F [Example 337, N-(6,7-Dichloro-3-(1H-pyrazol-4-yl)-1H-indazol-4-yl)-2,2-difluoroacetamide] | 0.281 µM | 0.0124 µM
25 | OCCCOc1cc(Cl)c(Cl)c2[nH]c(CO)c(-c3cn[nH]c3)c12 [Example 338, 3-((6,7-Dichloro-2-(hydroxymethyl)-3-(1H-pyrazol-4-yl)-1H-indol-4-yl)oxy)propan-1-ol] | 0.198 µM | 0.00474 µM
26 | CN1CCn2c(c(-c3cn[nH]c3)c3c(OCCCO)cc(Cl)c(Cl)c32)C1=O [Example 339, 6,7-Dichloro-9-(3-hydroxypropoxy)-2-methyl-10-(1H-pyrazol-4-yl)-3,4-dihydropyrazino[1,2-a]indol-1(2H)-one] | 0.426 µM | 0.00789 µM
27 | N#CCOc1cc(Cl)c(Cl)c2[nH]c(CO)c(-c3cn[nH]c3)c12 [Example 340, 2-((6,7-Dichloro-2-(hydroxymethyl)-3-(1H-pyrazol-4-yl)-1H-indol-4-yl)oxy)acetonitrile] | 0.516 µM | 0.0102 µM
28 | COc1cc2c(-c3cn[nH]c3)cn(-c3cccnn3)c2cc1Cl [Example 341, 6-Chloro-5-methoxy-3-(1H-pyrazol-4-yl)-1-(pyridazin-3-yl)-1H-indole] | 0.8 µM | 0.0276 µM
29 | COc1cc2c(-c3cn[nH]c3)cn(-c3ccc(CO)nn3)c2cc1Cl [Example 342, (6-(6-chloro-5-methoxy-3-(1H-pyrazol-4-yl)-1H-indol-1-yl)pyridazin-3-yl)methanol] | 0.964 µM | 0.0261 µM
